In ChEMBL document CHEMBL6182876, “Design, synthesis and preliminary structure-activity relationship of 2-iminothiazolidine-4-one derivatives against Schistosoma japonicum in vitro and in vivo” (Eur J Med Chem, 2025):
Activity calls are given as the source filed them. The rule behind the calls is not given here.

Key:
[1] = Acute toxicity in ICR mouse assessed as BUN level at 1144 mg/kg, po administered for 7 days; type: organism-based; conditions: in vivo, 168 h, time 7 day
Schistosoma japonicum [2] = test: Anti-schistosomal activity against male adult Schistosoma japonicum assessed as appearance of intact tegument surface at 25 uM measured for 72 hrs by SEM analysis; type: functional, organism-based
Schistosoma japonicum [3] = test: Anti-schistosomal activity against male adult Schistosoma japonicum assessed as appearance of degradation of subtegumental matrix at 25 uM measured for 72 hrs by SEM analysis; type: functional, organism-based
Schistosoma japonicum [4] = test: Anti-schistosomal activity against male adult Schistosoma japonicum assessed as appearance of parallel wrinkles at 25 uM measured for 72 hrs by SEM analysis; type: functional, organism-based
[5] = Acute toxicity in ICR mouse assessed as liver damage at 1144 mg/kg, po administered for 7 days by H and E staining based analysis; type: organism-based; conditions: in vivo, 168 h, time 7 day
Schistosoma japonicum [6] = test: Anti-schistosomal activity against male adult Schistosoma japonicum assessed as loss of tegumental architecture at 25 uM measured after 72 hrs by SEM analysis; type: functional, organism-based
Schistosoma japonicum [7] = test: Anti-schistosomal activity against male adult Schistosoma japonicum assessed as surface destabilization at 25 uM measured for 72 hrs by SEM analysis; type: functional, organism-based
[8] = Acute toxicity in po dosed ICR mouse assessed as lethal dose; type: organism-based; conditions: in vivo
Schistosoma japonicum [9] = test: Anti-schistosomal activity against adult Schistosoma japonicum assessed as disintegration of tegument at 25 uM measured for 72 hrs by SEM analysis; type: functional, organism-based
Schistosoma japonicum [10] = test: Anti-schistosomal activity against adult Schistosoma japonicum assessed as collapse of sucker musculature at 25 uM measured for 72 hrs by SEM analysis; type: functional, organism-based
Schistosoma japonicum [11] = test: Anti-schistosomal activity against adult Schistosoma japonicum assessed as muscle contractions at 50 uM incubated for 1 to 72 hrs by optical microscopic analysis; type: functional, organism-based; conditions: time 1-72 hrs
[12] = Acute toxicity in ICR mouse assessed as TBIL level at 1144 mg/kg, po administered for 7 days; type: organism-based; conditions: in vivo, 168 h, time 7 day
Schistosoma japonicum [13] = test: Anti-schistosomal activity against adult Schistosoma japonicum infected in ICR mouse assessed as number of worms at 25 mg/kg, ip administered for 7 days; type: functional; conditions: time 7 day
[14] = Toxicity in ICR mouse infected with Schistosoma japonicum assessed as serum BUN level at 25 mg/kg, ip administered for 7 days; type: organism-based; conditions: in vivo, 168 h, time 7 day
Schistosoma japonicum [15] = test: Anti-schistosomal activity against adult Schistosoma japonicum assessed as reduction in oviposition at 50 uM incubated for 72 hrs by optical microscopic analysis; type: functional, organism-based
Schistosoma japonicum [16] = test: Anti-schistosomal activity against adult Schistosoma japonicum assessed as mortality by measuring body twisting at 50 uM incubated for 1 to 72 hrs by optical microscopic analysis; type: functional, organism-based; conditions: time 1-72 hrs
Schistosoma japonicum [17] = test: Anti-schistosomal activity against juvenile Schistosoma japonicum infected in ICR mouse assessed as cellular vacuolization at 25 mg/kg, ip administered for 7 days; type: functional, organism-based; conditions: time 7.0 day
Schistosoma japonicum [18] = test: Anti-schistosomal activity against juvenile Schistosoma japonicum infected in ICR mouse assessed as reduction in worm burden at 25 mg/kg, ip administered for 7 days; type: functional; set-up: scale not given: the % may be the effect or the level left; conditions: time 7 day
Schistosoma japonicum [19] = test: Anti-schistosomal activity against adult Schistosoma japonicum assessed as worm mortality at 100 uM measured at 24 hrs relative to control; type: functional
Schistosoma japonicum [20] = test: Anti-schistosomal activity against female adult Schistosoma japonicum assessed as loss of tegumental architecture at 25 uM measured after 72 hrs by SEM analysis; type: functional, organism-based
Schistosoma japonicum [21] = test: Anti-schistosomal activity against adult Schistosoma japonicum assessed as worm mortality at 100 uM measured at 4 hrs relative to control; type: functional
Schistosoma japonicum [22] = test: Anti-schistosomal activity against adult Schistosoma japonicum measured at 72 hrs; type: functional, organism-based
Schistosoma japonicum [23] = test: Anti-schistosomal activity against adult Schistosoma japonicum assessed as worm mortality at 100 uM measured at 12 hrs relative to control; type: functional
Schistosoma japonicum [24] = test: Anti-schistosomal activity against male adult Schistosoma japonicum assessed as complete loss of sucker-associated muscular architecture at 25 uM measured for 72 hrs by SEM analysis; type: functional, organism-based
Schistosoma japonicum [25] = test: Anti-schistosomal activity against adult Schistosoma japonicum assessed as worm mortality at 100 uM measured at 8 hrs relative to control; type: functional
Schistosoma japonicum [26] = test: Anti-schistosomal activity against juvenile Schistosoma japonicum infected in ICR mouse assessed as number of worms at 25 mg/kg, ip administered for 7 days; type: functional; conditions: time 7 day
Schistosoma japonicum [27] = test: Anti-schistosomal activity against juvenile Schistosoma japonicum infected in ICR mouse assessed as number of eggs in hepatocyte at 25 mg/kg, ip administered for 7 days; type: functional, organism-based; conditions: time 7.0 day
Schistosoma japonicum [28] = test: Anti-schistosomal activity against adult Schistosoma japonicum assessed as worm mortality at 100 uM measured at 72 hrs relative to control; type: functional
[29] = Acute toxicity in ICR mouse assessed as ALT level at 1144 mg/kg, po administered for 7 days; type: organism-based; conditions: in vivo, 168 h, time 7 day
Schistosoma japonicum [30] = test: Anti-schistosomal activity against male adult Schistosoma japonicum assessed as disruption of tegument spines on the oral suckers at 25 uM measured for 72 hrs by SEM analysis; type: functional, organism-based
Schistosoma japonicum [31] = test: Anti-schistosomal activity against adult Schistosoma japonicum assessed as darkened body pigmentation at 50 uM incubated for 1 to 72 hrs by optical microscopic analysis; type: functional, organism-based; conditions: time 1-72 hrs
Schistosoma japonicum [32] = test: Anti-schistosomal activity against juvenile Schistosoma japonicum infected in ICR mouse assessed as accumulation of inflammatory cells at 25 mg/kg, ip administered for 7 days; type: functional, organism-based; conditions: time 7.0 day
[33] = Acute toxicity in ICR mouse assessed as AST level at 1144 mg/kg, po administered for 7 days; type: organism-based; conditions: in vivo, 168 h, time 7 day
Schistosoma japonicum [34] = test: Anti-schistosomal activity against adult Schistosoma japonicum infected in ICR mouse assessed as reduction in worm burden at 25 mg/kg, ip administered for 7 days; type: functional; set-up: scale not given: the % may be the effect or the level left; conditions: time 7 day
Schistosoma japonicum [35] = test: Anti-schistosomal activity against adult Schistosoma japonicum assessed as worm mortality at 100 uM measured at 48 hrs relative to control; type: functional
Schistosoma japonicum [36] = test: Anti-schistosomal activity against male adult Schistosoma japonicum assessed as appearance of sensory papillae at 25 uM measured for 72 hrs by SEM analysis; type: functional, organism-based
Schistosoma japonicum [37] = test: Anti-schistosomal activity against juvenile Schistosoma japonicum infected in ICR mouse assessed as somatic degeneration at 25 mg/kg, ip administered for 7 days; type: functional, organism-based; conditions: time 7.0 day

| Compound | Activity [1] [mM] | Activity (Schistosoma japonicum [2]) | Activity (Schistosoma japonicum [3]) | Activity (Schistosoma japonicum [4]) | Activity (Schistosoma japonicum [6]) | Activity (Schistosoma japonicum [7]) | Activity [12] [µM] | Activity (Schistosoma japonicum [13]) [%] | Activity [14] [mM] | Activity (Schistosoma japonicum [18]) [%] | mortality at 100 µM (Schistosoma japonicum [19]) [%] | Activity (Schistosoma japonicum [20]) | mortality at 100 µM (Schistosoma japonicum [21]) [%] | IC50 (Schistosoma japonicum [22]) [µM] | mortality at 100 µM (Schistosoma japonicum [23]) [%] | Activity (Schistosoma japonicum [24]) | mortality at 100 µM (Schistosoma japonicum [25]) [%] | Activity (Schistosoma japonicum [26]) [%] | mortality at 100 µM (Schistosoma japonicum [28]) [%] | Activity [29] [U/L] | other results |
| --- | --- | --- | --- | --- | --- | --- | --- | --- | --- | --- | --- | --- | --- | --- | --- | --- | --- | --- | --- | --- | --- |
| CCOC(=O)/C=C1\S/C(=N\c2ccc(C(F)(F)F)cc2)N(CCCN2CCN(C)CC2)C1=O | 9.6 | Active | Active | Active | Active | Active | 3.24 | 24 | 7.22 | 26 | 100 | Active | 20 | 25.3 | 100 | Active | 50 | 32 | 100 | 142 | Activity [5]: Non-toxic; LD50 [8]: 1400 mg/kg; Activity (Schistosoma japonicum [9]): Active; Activity (Schistosoma japonicum [10]): Active; Activity (Schistosoma japonicum [11]): Active; Activity (Schistosoma japonicum [15]): Active; Activity (Schistosoma japonicum [16]): Active; Activity (Schistosoma japonicum [17]): Active; Activity (Schistosoma japonicum [27]): Active; Activity (Schistosoma japonicum [30]): Active; Activity (Schistosoma japonicum [31]): Active; Activity (Schistosoma japonicum [32]): Active; Activity [33]: 41 U/L; Activity (Schistosoma japonicum [34]): 52%; mortality at 100 µM (Schistosoma japonicum [35]): 100%; Activity (Schistosoma japonicum [36]): Active |
| O=C(C1CCCCC1)N1CC(=O)N2CCc3ccccc3C2C1 (stereo unspecified) [PRAZIQUANTEL] | 7.93 | Active | Active | Active | Active | Active | 3.76 | 7 | 22.1 | 49 | 100 | Active | 100 | 43.8 | 100 | Active | 100 | 22 | 100 | 136 | Activity (Schistosoma japonicum [37]): Active; Activity [33]: 57 U/L; Activity (Schistosoma japonicum [34]): 86%; mortality at 100 µM (Schistosoma japonicum [35]): 100%; Activity (Schistosoma japonicum [36]): Active |
